These are literature values, as cited in patent US20190021385A1, “ORALLY DISSOLVABLE COMPOSITIONS FOR NUTRITION SUPPLEMENTATION” (Exeltis USA, Inc., priority 2017, published 2019).

For this data set the following is noted: intake of about 1000 IU per day, all adults; Bischoff-Ferrari 2008.

As to `C=C1CC[C@H](O)C/C1=C/C=C1\CCC[C@]2(C)[C@@H]([C@H](C)CCCC(C)C)CC[C@@H]12` [vitamin D3, cholecalciferol], the “share of the population brought up to the 30 ng/ml serum range for 25-hydroxyvitamin D” value is recorded as “at least 50%”.
